# Tests used:
# [1] = physchem
# Description: Log P is the lipophilicity coefficient, where P is the octonol/water partition coefficient.
# [2] = system: VEGF-induced BRB and BAB breakdown in rabbit eye; assay: Rabbit model of VEGF-induced BRB and BAB breakdown, scanning ocular fluorophotometry, aqueous steroid suspensions (Example 1); type: in vivo; conditions: for inhibition of VEGF-induced BAB breakdown (iris leakage, anterior segment) / inhibition of VEGF-induced BRB breakdown (retinal leakage, posterior segment): 1 mg (100 μl of 10 mg/ml suspension) intravitreal, VEGF one month thereafter, fluorophotometry 48 hrs after VEGF; for block of VEGF-induced BAB breakdown (iris leakage) / block of VEGF-induced BRB breakdown (retinal leakage): rabbit, corticosteroid administered systemically or intravitreally
# Protocol: An in vivo (rabbit eye) experiment was carried out with liquid glucocorticoid derivative formulations. Recombinant vascular endothelial growth factor (VEGF) was obtained from a supplier (R&D Systems). Female Dutch Belt rabbits were anaesthetized with isoflurane inhalation and topical 0.5% proparacaine hydrochloride, and intravitreal injection of one eye with 500 ng VEGF in sterile phosphate buffered saline (PBS) containing 0.1% bovine serum albumin was performed using a 28 gauge ½ inch needle. The other eye is given the same volume of the vehicle, without the VEGF.
# The extent of VEGF-induced BRB and BAB breakdown of the blood retinal barrier and the blood aqueous barrier was measured by scanning ocular fluorophotemetry (Fluorotron Master, Ocumetrics Inc.); at various times following intravitreal injection. In this model a fluorescent label is administered intravenously, following by determination of the amount of fluorescenin in the anterior and posterior segment and an indication of iridial and retinal leakage, respectively.
# VEGF injection mimics this pathological condition.
# Sodium fluorescein in 1 ml saline was injected via the marginal ear vein at a concentration of 50 mg/kg, and ocular fluorescein levels in the vitreoretinal chamber and the anterior chamber was determined 50 minutes later.
# Ten milligrams of each compound is added to 1 ml of sterile phosphate-buffered saline (PBS; ph 7.4). At day 0, 100 μl of a 10 mg/ml suspension of each steroid is injected into the vitreous of a rabbit eye. The PBS vehicle is injected into the other eye. VEGF is then injected at a pre-determined time (one month) thereafter, and BRB and BAB breakdown were measured by scanning ocular fluorophotometry 48 hrs later as described in Edelman et al., EXP.
# [3] = system: cystic macular edema; assay: Treatment of macular edema with a solid GD implant (Example 4); type: in vivo, human
# Protocol: A person diagnosed with cystic macular edema treated by administration of a biodegradable drug delivery system administered to each eye of the patient. […] A similar implant is administered subconjunctivally to the patient's right eye. […] No increase in intraocular pressure is seen one week after administration.
# [4] = Water solubility; type: physicochemical
# [5] = system: wet age-related macular degeneration; assay: Treatment of ARMD with a viscous GD formulation (Example 5); type: in vivo, human; conditions: intravitreal 100 μl hyaluronic acid solution with about 1000 μg crystals in suspension
# Protocol: A person with wet age-related macular degeneration is treated with an intravitreal injection of 100 μl of a hyaluronic acid solution containing about 1000 μg of fluticasone propionate crystals in suspension.
# [6] = after about 3 months from the surgery, 2 mg PLGA implant with about 1000 μg drug
# [7] = 500 ng VEGF intravitreal, 48 hours after injection, 50 minutes after fluorescein
Compound,Lipophicity (log P) [1],logP [1],"inhibition of VEGF-induced BAB breakdown (iris leakage, anterior segment) ([2]; rabbit eye)","inhibition of VEGF-induced BRB breakdown (retinal leakage, posterior segment) ([2]; rabbit eye)",block of VEGF-induced BAB breakdown (iris leakage) [2],block of VEGF-induced BRB breakdown (retinal leakage) [2],other results
C[C@@H]1C[C@H]2[C@@H]3CCC4=CC(=O)C=C[C@]4(C)[C@@]3(F)[C@@H](O)C[C@]2(C)[C@@]1(O)C(=O)CO [Dexamethasone],1.95,1.95,–,–,–,–,–
CC1(C)O[C@@H]2C[C@H]3[C@@H]4CCC5=CC(=O)C=C[C@]5(C)[C@@]4(F)[C@@H](O)C[C@]3(C)[C@]2(C(=O)CO)O1 [Triamcinolone acetonide],–,–,completely inhibited,completely inhibited,completely blocked,completely blocked,Water Solubility [4]: 21 µg/mL; logP ([1]; octanol/water): 2.53
C[C@H]1C[C@H]2[C@@H]3CCC4=CC(=O)C=C[C@]4(C)[C@@]3(Cl)[C@@H](O)C[C@]2(C)[C@@]1(O)C(=O)CO [beclomethasone],–,–,inhibited,inhibited,completely blocked,completely blocked,–
VEGF,–,–,–,–,–,–,"increase in fluorescein contained in the aqueous (BAB breakdown) compared to normal untreated rabbit eyes [2, 7]: approximately 6 fold; increase in fluorescein contained in the vitreous (BRB breakdown) compared to normal untreated rabbit eyes [2, 7]: approximately 18 fold"

# Second part, led by results:
Lipophicity (log P) [1],logP [1],Compound,"inhibition of VEGF-induced BAB breakdown (iris leakage, anterior segment) ([2]; rabbit eye)","inhibition of VEGF-induced BRB breakdown (retinal leakage, posterior segment) ([2]; rabbit eye)",block of VEGF-induced BAB breakdown (iris leakage) [2],block of VEGF-induced BRB breakdown (retinal leakage) [2],other results
4.40,4.4,"CCC(=O)OCC(=O)[C@@]1(OC(=O)CC)[C@@H](C)C[C@H]2[C@@H]3CCC4=CC(=O)C=C[C@]4(C)[C@@]3(Cl)[C@@H](O)C[C@@]21C [Beclomethasone dipropionate, beclomethasone 17,21-dipropionate]",no effect,completely blocks,–,–,"duration of complete inhibition of VEGF-mediated responses ([2]; rabbit eye, 100 μl of 10 mg/ml intravitreal): greater than 3 months; appearance of the retina [3, 6]: appears normal; degeneration of the optic nerve [3, 6]: appears to be reduced; increase in intraocular pressure ([3]; one week after administration, 2 mg PLGA implant with about 1000 μg drug): No increase; reduction in retinal thickness ([3]; right eye (implant subconjunctival) versus left eye (intravitreal), 2 mg implant, about 1000 μg PLGA and about 1000 μg drug): more rapid reduction"
4.20,4.2,CCC(=O)O[C@]1(C(=O)SCF)[C@H](C)C[C@H]2[C@@H]3C[C@H](F)C4=CC(=O)C=C[C@]4(C)[C@@]3(F)[C@@H](O)C[C@@]21C [Fluticasone propionate],no effect,completely blocks,–,–,solubility ([4]; water): 0.14 µg/mL; quality of life reported by patient [5]: overall improvement; rate of neovascularization and related inflammation ([5]; within one month): acceptable reduction

# Source: patent publication US20150265633A1, “STEROID CONTAINING DRUG DELIVERY SYSTEM” (Allergan, Inc., priority 2007, published 2015)
